Source: patent publication US20140135319A1, “6-SUBSTITUTED IMIDAZOPYRAZINES FOR USE AS MPS-1 AND TKK INHIBITORS IN THE TREATMENT OF HYPERPROLIFERATIVE DISORDERS” (BAYER INTELLECTUAL PROPERTY GMBH, priority 2010, published 2014)
pIC50: −log10 of the molar value.

Biological target: T1, human kinase Mps-1 (Homo sapiens, UniProt P33981)
T1 construct: N-terminally GST-tagged human full length recombinant Mps-1 kinase; GST (N); purchased Invitrogen, Karslruhe, Germany PV4071
T1 sequence (P33981 1-857): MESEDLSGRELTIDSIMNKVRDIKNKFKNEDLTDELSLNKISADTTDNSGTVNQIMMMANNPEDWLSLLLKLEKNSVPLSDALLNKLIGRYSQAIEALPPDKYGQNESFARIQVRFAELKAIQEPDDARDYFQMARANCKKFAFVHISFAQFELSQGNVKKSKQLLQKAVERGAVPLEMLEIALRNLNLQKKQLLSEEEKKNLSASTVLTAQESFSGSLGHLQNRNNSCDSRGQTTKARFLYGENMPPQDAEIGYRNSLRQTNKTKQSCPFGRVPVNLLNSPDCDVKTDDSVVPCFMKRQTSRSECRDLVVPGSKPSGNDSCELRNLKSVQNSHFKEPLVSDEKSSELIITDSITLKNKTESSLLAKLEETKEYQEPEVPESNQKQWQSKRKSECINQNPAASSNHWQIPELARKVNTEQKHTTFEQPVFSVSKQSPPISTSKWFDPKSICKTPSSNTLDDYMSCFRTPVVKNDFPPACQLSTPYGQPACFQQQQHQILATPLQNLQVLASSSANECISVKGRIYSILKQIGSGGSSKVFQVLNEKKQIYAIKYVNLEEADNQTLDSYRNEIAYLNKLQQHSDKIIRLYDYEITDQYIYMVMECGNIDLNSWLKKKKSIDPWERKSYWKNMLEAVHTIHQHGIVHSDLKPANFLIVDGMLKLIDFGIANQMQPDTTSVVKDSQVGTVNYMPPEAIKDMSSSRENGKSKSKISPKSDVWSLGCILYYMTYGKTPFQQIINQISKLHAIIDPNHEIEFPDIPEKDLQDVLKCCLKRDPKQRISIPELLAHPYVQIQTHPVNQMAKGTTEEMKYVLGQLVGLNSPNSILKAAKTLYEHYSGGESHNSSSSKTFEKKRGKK
Assay: Mps-1 kinase assay (TR-FRET)
Assay type: biochemical
Settings: GST-tagged human full length recombinant Mps-1; 10 μM ATP; 1 μM peptide substrate; 60 min at 22° C.
Procedure, shortened: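 TR-FRET read-out: after 1 h binding at 22° C, Eu-labelled anti-phospho-Ser/Thr antibody transfers to SA-XLent on the phosphorylated biotinylated peptide. The enzyme is GST-tagged full-length human Mps-1, typically about 1 nM final, in the linear range.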

SMILES: Cc1cc(-c2cnc3c(NCCC(F)(F)F)nc(Sc4cccc(F)c4)cn23)ccc1C(=O)NC1CC1 [Example 15-3, N-cyclopropyl-4-{6-[(3-fluorophenyl)sulfanyl]-8-[(3,3,3-trifluoropropyl)amino]imidazo[1,2-a]pyrazin-3-yl}-2-methylbenzamide]
- pIC50: > 9.00
